Where a SMILES comes first, the peptide text is derived from it.
Molecular target: T1, Interleukin-23 receptor (Homo sapiens, UniProt Q5VWK5)
T1 sequence (Q5VWK5 whole entry): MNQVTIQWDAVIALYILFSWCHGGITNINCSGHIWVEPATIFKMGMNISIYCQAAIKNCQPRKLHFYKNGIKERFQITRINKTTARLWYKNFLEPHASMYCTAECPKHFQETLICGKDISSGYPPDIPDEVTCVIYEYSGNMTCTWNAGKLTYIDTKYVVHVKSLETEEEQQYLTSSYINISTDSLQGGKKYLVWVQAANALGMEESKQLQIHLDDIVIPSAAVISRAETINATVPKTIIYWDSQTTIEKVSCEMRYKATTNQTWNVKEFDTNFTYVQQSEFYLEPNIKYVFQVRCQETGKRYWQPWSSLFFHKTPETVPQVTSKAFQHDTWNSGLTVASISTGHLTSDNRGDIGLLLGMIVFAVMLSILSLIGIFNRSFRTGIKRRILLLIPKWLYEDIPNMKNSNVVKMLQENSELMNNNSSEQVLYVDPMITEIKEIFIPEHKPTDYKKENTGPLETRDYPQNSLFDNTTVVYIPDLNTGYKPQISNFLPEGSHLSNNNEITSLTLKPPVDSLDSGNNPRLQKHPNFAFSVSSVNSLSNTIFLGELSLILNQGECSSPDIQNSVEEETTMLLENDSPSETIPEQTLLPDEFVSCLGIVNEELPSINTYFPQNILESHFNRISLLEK
Assay: Inhibition of interleukin-23 binding to human interleukin-23 receptor incubated for 2 hrs by competitive binding ELISA

Row | IC50 [µM] | Molecule
1 | 6 | CC(=O)N[C@@H](CS)C(=O)N[C@@H](CCC(N)=O)C(=O)N[C@H](C(=O)N[C@@H](Cc1c[nH]c2ccccc12)C(=O)N[C@@H](CCC(N)=O)C(=O)N[C@@H](CS)C(=O)N[C@@H](Cc1ccc(O)cc1)C(=O)N[C@@](C)(Cc1c[nH]c2ccccc12)C(=O)N[C@@H](CCCNC(=N)N)C(=O)N[C@H](C(=O)N[C@@H](CC(N)=O)C(=O)NCC(=O)NCCC(=O)N[C@H](CCCCN)C(N)=O)C(C)C)[C@@H](C)O
2 | > 30 | CC(=O)N[C@@H](CS)C(=O)N[C@@H](CCC(N)=O)C(=O)N[C@H](C(=O)N[C@@H](Cc1c[nH]c2ccccc12)C(=O)N[C@@H](CCC(N)=O)C(=O)N[C@@H](CS)C(=O)N1Cc2ccccc2C[C@H]1C(=O)N[C@@H](Cc1c[nH]c2ccccc12)C(=O)N[C@@H](CCC(C)C)C(=O)N[C@@H](CCC(=O)O)C(=O)N[C@@H](CC(N)=O)C(=O)NCC(N)=O)[C@@H](C)O
3 | < 0.5 | Ac-QTWQCYWRK(Ac)NG-NH2
4 | > 1 | CC(=O)N[C@H](CCCCN)C(=O)N[C@@H](CS)C(=O)N[C@@H](C)C(=O)N[C@@H](CC(=O)O)C(=O)N[C@@H](Cc1c[nH]c2ccccc12)C(=O)N[C@H](C(=O)N[C@@H](CS)C(=O)N[C@@H](Cc1ccc(O)cc1)C(=O)N[C@@H](Cc1c[nH]c2ccccc12)C(=O)N[C@@H](Cc1cnc[nH]1)C(=O)N[C@H](C(=O)N[C@@H](Cc1ccccc1)C(=O)NCC(=O)O)[C@@H](C)O)C(C)C
5 | > 30 | CC(=O)N[C@@H](CS)C(=O)N[C@@H](CCC(N)=O)C(=O)N[C@H](C(=O)N[C@@H](Cc1c[nH]c2ccccc12)C(=O)N[C@@H](CCC(N)=O)C(=O)N[C@@H](CS)C(=O)N[C@@H](Cc1ccc(O)cc1)C(=O)N[C@H](CC(=O)N[C@@H](CCCNC(=N)N)C(=O)N[C@H](C(=O)N[C@@H](CC(N)=O)C(=O)NCC(=O)NCCOCC(=O)N[C@H](CCCCN)C(N)=O)C(C)C)Cc1ccc(F)cc1)[C@@H](C)O
6 | < 0.5 | CC(=O)N[C@@H](CS)C(=O)N[C@@H](CCC(N)=O)C(=O)N[C@H](C(=O)N[C@@H](Cc1c[nH]c2ccccc12)C(=O)N[C@@H](CCC(N)=O)C(=O)N[C@@H](CS)C(=O)N[C@@H](Cc1ccc(O)cc1)C(=O)N[C@@H](Cc1c[nH]c2ccccc12)C(=O)N[C@@H](CCCNC(=N)N)C(=O)N[C@@H](CCCN)C(=O)N[C@@H](CC(N)=O)C(=O)NCC(=O)NCCOCC(=O)N[C@H](CCCCN)C(N)=O)[C@@H](C)O
7 | < 0.5 | CC(=O)N[C@@H](CS)C(=O)N[C@@H](CCC(N)=O)C(=O)N[C@H](C(=O)N[C@@H](Cc1c[nH]c2ccccc12)C(=O)N[C@@H](CCC(N)=O)C(=O)N[C@@H](CS)C(=O)N[C@@H](Cc1ccc(O)cc1)C(=O)N[C@@H](Cc1c[nH]c2ccccc12)C(=O)N[C@@H](CCCNC(=N)N)C(=O)N[C@@H](CCCNC(=N)N)C(=O)N[C@@H](CC(N)=O)C(=O)NCC(=O)NCCOCC(=O)N[C@H](CCCCN)C(N)=O)[C@@H](C)O
8 | 0.5 to 1 | CC(=O)NCC(=O)NCC(=O)N[C@H](C(=O)N[C@@H](CCC(=O)O)C(=O)N[C@@H](CS)C(=O)N[C@@H](CC(N)=O)C(=O)N[C@@H](CC(=O)O)C(=O)N[C@@H](Cc1c[nH]c2ccccc12)C(=O)N[C@@H](CCC(N)=O)C(=O)N[C@@H](CS)C(=O)N[C@@H](Cc1ccc(O)cc1)C(=O)N[C@@H](Cc1c[nH]c2ccccc12)C(=O)N[C@@H](Cc1cnc[nH]1)C(=O)N[C@H](C(=O)N[C@@H](Cc1ccccc1)C(=O)NCC(N)=O)[C@@H](C)O)C(C)C (Ac-GGVECNDWQCYWHTFG-NH2)
9 | < 0.5 | CC(=O)N[C@@H](CS)C(=O)N[C@@H](CCC(N)=O)C(=O)N[C@H](C(=O)N[C@@H](Cc1c[nH]c2ccccc12)C(=O)N[C@@H](CCC(N)=O)C(=O)N[C@@H](CS)C(=O)N[C@@H](Cc1ccc(O)cc1)C(=O)N[C@@H](Cc1c[nH]c2ccccc12)C(=O)N[C@@H](CCCNC(=N)N)C(=O)N[C@H](C(=O)N[C@@H](CC(N)=O)C(=O)NCC(=O)NCCOCC(=O)N[C@H](CCCCN)C(N)=O)[C@@H](C)O)[C@@H](C)O
10 | 0.1 to 1 | COc1ccc(C[C@H](NC(=O)[C@@H](NC(=O)[C@H](CCC(N)=O)NC(=O)[C@H](Cc2c[nH]c3ccccc23)NC(=O)[C@@H](NC(=O)[C@H](CCC(N)=O)NC(=O)[C@@H](NC(=O)Cc2ccc(-c3ccccc3)cc2)C(C)(C)S)[C@@H](C)O)C(C)(C)S)C(=O)N[C@@H](Cc2ccc3ccccc3c2)C(=O)N[C@@](C)(CCCCN)C(=O)N[C@@H](CCCCNC(C)=O)C(=O)N[C@@H](CC(N)=O)C(=O)NCC(N)=O)cc1
11 | 0.5 to 1 | CC(=O)NCC(=O)N[C@@H](CC(=O)O)C(=O)N[C@@H](Cc1cnc[nH]1)C(=O)N[C@@H](CCCCN)C(=O)N[C@@H](CS)C(=O)N[C@@H](CO)C(=O)N[C@@H](CO)C(=O)N[C@@H](Cc1c[nH]c2ccccc12)C(=O)N[C@@H](CCC(=O)O)C(=O)N[C@@H](CS)C(=O)N[C@@H](Cc1ccc(O)cc1)C(=O)N[C@@H](Cc1c[nH]c2ccccc12)C(=O)N[C@@H](Cc1cnc[nH]1)C(=O)N[C@H](C(=O)N[C@@H](Cc1ccccc1)C(=O)NCC(N)=O)[C@@H](C)O (Ac-GDHKCSSWECYWHTFG-NH2)

The next lines start with the molecule.

Row | Molecule | IC50 [µM]
12 | CC(=O)N[C@@H](CS)C(=O)N[C@@H](CCC(N)=O)C(=O)N[C@H](C(=O)N[C@@H](Cc1c[nH]c2ccccc12)C(=O)N[C@@H](CCC(N)=O)C(=O)N[C@@H](CS)C(=O)N[C@@H](Cc1ccc(O)cc1)C(=O)N[C@@H](Cc1c[nH]c2ccccc12)C(=O)N[C@@H](CCCNC(=N)N)C(=O)N[C@@H](CCCCN)C(=O)N[C@@H](CC(N)=O)C(=O)NCC(=O)NCCOCC(=O)N[C@H](CCCCN)C(N)=O)[C@@H](C)O | < 0.5
13 | CC(C)[C@H](NC(=O)[C@H](Cc1c[nH]c2ccccc12)NC(=O)[C@H](CC(=O)O)NC(=O)[C@H](C)NC(=O)[C@@H](N)CS)C(=O)N[C@@H](CS)C(=O)N[C@@H](Cc1ccc(O)cc1)C(=O)N[C@H](CC(=O)N[C@@H](Cc1cnc[nH]1)C(=O)N[C@H](C(=O)N[C@@H](Cc1ccccc1)C(=O)NCC(N)=O)[C@@H](C)O)Cc1c[nH]c2ccccc12 | > 1
14 | CC(=O)N[C@H]1CCSC[C@@H](C(=O)N[C@@H](Cc2ccc(OCCN)cc2)C(=O)N[C@@H](Cc2ccc3ccccc3c2)C(=O)N[C@@](C)(CCCCN)C(=O)N[C@@H](CCC(=O)O)C(=O)N[C@@H](CC(N)=O)C(=O)NCC(N)=O)NC(=O)[C@H](CCC(N)=O)NC(=O)[C@@H]2Cc3ccccc3CN2C(=O)[C@H]([C@@H](C)O)NC(=O)[C@H](CCC(N)=O)NC1=O | > 3
15 | CC(=O)N[C@@H](CS)C(=O)N[C@@H](C)C(=O)N[C@@H](CC(=O)O)C(=O)N[C@@H](Cc1c[nH]c2ccccc12)C(=O)N[C@@H](CCCCNC(=O)COCC(=O)NCCCC[C@H](NC(=O)[C@H](Cc1c[nH]c2ccccc12)NC(=O)[C@H](CC(=O)O)NC(=O)[C@H](C)NC(=O)[C@H](CS)NC(C)=O)C(=O)N[C@@H](CS)C(=O)N[C@@H](Cc1ccc(O)cc1)C(=O)N[C@@H](Cc1c[nH]c2ccccc12)C(=O)N[C@@H](Cc1cnc[nH]1)C(=O)N[C@H](C(=O)N[C@@H](Cc1ccccc1)C(=O)NCC(=O)O)[C@@H](C)O)C(=O)N[C@@H](CS)C(=O)N[C@@H](Cc1ccc(O)cc1)C(=O)N[C@@H](Cc1c[nH]c2ccccc12)C(=O)N[C@@H](Cc1cnc[nH]1)C(=O)N[C@H](C(=O)N[C@@H](Cc1ccccc1)C(=O)NCC(=O)O)[C@@H](C)O | > 10
16 | CC(=O)N[C@@H](CS)C(=O)N[C@@H](CCCCNC(=O)COCC(=O)NCCCC[C@H](NC(=O)[C@H](CS)NC(C)=O)C(=O)N[C@@H](CC(=O)O)C(=O)N[C@@H](Cc1c[nH]c2ccccc12)C(=O)N[C@H](C(=O)N[C@@H](CS)C(=O)N[C@@H](Cc1ccc(O)cc1)C(=O)N[C@@H](Cc1c[nH]c2ccccc12)C(=O)N[C@@H](Cc1cnc[nH]1)C(=O)N[C@H](C(=O)N[C@@H](Cc1ccccc1)C(=O)NCC(=O)O)[C@@H](C)O)C(C)C)C(=O)N[C@@H](CC(=O)O)C(=O)N[C@@H](Cc1c[nH]c2ccccc12)C(=O)N[C@H](C(=O)N[C@@H](CS)C(=O)N[C@@H](Cc1ccc(O)cc1)C(=O)N[C@@H](Cc1c[nH]c2ccccc12)C(=O)N[C@@H](Cc1cnc[nH]1)C(=O)N[C@H](C(=O)N[C@@H](Cc1ccccc1)C(=O)NCC(=O)O)[C@@H](C)O)C(C)C | > 10
17 | CC(=O)N[C@@H](CS)C(=O)N[C@@H](CCC(N)=O)C(=O)N[C@H](C(=O)N[C@@H](Cc1c[nH]c2ccccc12)C(=O)N[C@@H](CCC(N)=O)C(=O)N[C@@H](CS)C(=O)N[C@@H](Cc1ccc(O)cc1)C(=O)N[C@@H](Cc1c[nH]c2ccccc12)C(=O)N[C@H](CCCNC(=N)N)C(=O)N[C@H](CCC(=O)O)C(=O)N[C@@H](CC(N)=O)C(=O)NCC(=O)NCCOCC(=O)N[C@H](CCCCN)C(N)=O)[C@@H](C)O | > 1
18 | CC(C)[C@H](NC(=O)[C@H](Cc1c[nH]c2ccccc12)NC(=O)[C@H](CC(=O)O)NC(=O)[C@H](C)NC(=O)[C@@H](N)CS)C(=O)N[C@@H](CS)C(=O)N[C@@H](Cc1ccc(O)cc1)C(=O)N[C@@H](Cc1c[nH]c2ccccc12)C(=O)N[C@@H](Cc1cnc[nH]1)C(=O)N[C@H](C(N)=O)[C@@H](C)O | > 1
19 | CC(C)[C@H](NC(=O)[C@H](Cc1c[nH]c2ccccc12)NC(=O)[C@H](CC(=O)O)NC(=O)[C@H](C)NC(=O)[C@@H](N)CS)C(=O)N[C@@H](CS)C(=O)N[C@@H](Cc1ccc(O)cc1)C(=O)N[C@@H](Cc1ccc2ccccc2c1)C(=O)N[C@@H](Cc1cnc[nH]1)C(=O)N[C@H](C(=O)N[C@@H](Cc1ccccc1)C(=O)NCC(N)=O)[C@@H](C)O | 0.5 to 1

Reference: ChEMBL document CHEMBL4417631, “Oral peptide inhibitors of interleukin-23 receptor and their use to treat inflammatory bowel diseases” (2017)
